Reference: US20020002294A1, “Estrogenic compounds as antiangiogenic agents” (priority 1997, published 2002)

Key:
[1] = test system: tubulin; experiment: inhibition of [3H]colchicine binding to tubulin; conditions: 100 μM inhibitor, 1.0 μM tubulin, 2 μM [3H]colchicine, 10 min at 37° C.; ± S.D.
Method: Incubation was for 10 min. at 37° C.
Incubation was for 10 mi. at 37° C. Average values obtained in three independent experiments are presented in the table, except for 2-methoxyestrone, which was only examined twice. S.D., standard deviation.

[2] = test system: tubulin; experiment: inhibition of tubulin polymerization in vitro (turbidity at 350 nm); format: biochemical; conditions: read-out: IC50 (concentration required to inhibit tubulin polymerization by 50%); mean ± S.D.; method of Example 1
Method: Anti-mitotic activity can be evaluated by testing the ability of an estradiol derivative to inhibit tubulin polymerization and microtubule assembly in vitro. Microtubule assembly is followed in a Gilford recording spectrophotometer (model 250 or 2400S) equipped with electronic temperature controllers. A reaction mixture (all concentrations refer to a final reaction volume of […]) contains 1.0 M monosodium glutamate (ph 6.6), 1. omg/ml (10 μM) tubulin, 1.0 mM MgCl2, 4% (v/v) dimethylsulfoxide and 20-75μM of a composition to be tested. The 0.24 ml reaction mixtures are incubated for 15 min. at 37° C. and then chilled on ice. After addition of 10p1 2.5mM GTP, the reaction mixture is transferred to a cuvette at 0° C., and a baseline established. At time zero, the temperature controller of the spectrophotometer is set at 37° C. Microtubule assembly is evaluated by increased turbity at 350 nm.
A. Each reaction mixture (all concentrations refer to the final reaction volume of 0.25 ml) contained 1.0 M monosodium glutamate (pH 6.6), 1.0 mg/ml (10 μM) tubulin, 1.0 mM MgCl2, 4% (v/v) dimethylsulfoxide, and either 0 (curve 1), 20μM (curve 2), 40 μM (curve 3), or 75 μM (curve 4) 2-methoxyestradiol. The 0.24 ml reaction mixtures were incubated for 15 min. at 37° C and chilled on ice. After addition of 10 μl of 2.5 mM GTP the reaction mixtures were transferred to cuvettes held at 0° C., and baselines were established. At time zero the temperature controller was set at 37° C. At the times indicated by the vertical dashed lines the temperature controller was set at the indicated temperatures.
B. Each reaction mixture contained 0.8 M monosodium glutamate (pH 6.6), 1.2 mg/ml (12 μM) tubulin, 4% (v/v) dimethylsulfoxide, and either 0 (curve 1), 1.0 FM (curve 2), 2.0 ,M (curve 3), 3.0 μM (curve 4), or 4.0 μM (curve 5) 2-methoxyestradiol. The 0.24 ml reaction mixtures were incubated for 15 min. at 26° C. and chilled on ice. After addition of 10μl of 10 mM GTP the reaction mixtures were transferred to cuvettes held at 0° C., and baselines were established. At time zero the temperature controller was set at 26° C. At the time indicated by vertical dashed line the temperature controller was set at 0° C.
The method is given in Example 1.
S.D., standard deviation.

[3] = test system: 8 human breast cancer cell lines; experiment: human tumor cell panel assay in vitro, breast panel; format: cell-based; parameters: key to Most Sensitive Cell Lines in Human Tumor Cell Panel Assay: Breast: Most sensitive cell panes are marked with ✓; conditions: for Most Sensitive Cell Lines in Human Tumor Cell Panel Assay: Breast: 8 cell lines, only MCF-7 and T-47D express estrogen and progesterone receptors
Source text: (§1) The tubulin activities, breast cancer cell line activities, and the cell panels most sensitive to selected analogs are shown in Tables 3 and 4.

[4] = target: T1, rat uterine cytosolic estrogen receptor (Rattus norvegicus, UniProt P06211); experiment: Relative Binding Affinity to estrogen receptor; conditions: at 0°; 3H-Estradiol=100
T1 construct: from tissue; host or cells: rat uterine cytosol (per the result head)
T1 sequence (P06211 1-600): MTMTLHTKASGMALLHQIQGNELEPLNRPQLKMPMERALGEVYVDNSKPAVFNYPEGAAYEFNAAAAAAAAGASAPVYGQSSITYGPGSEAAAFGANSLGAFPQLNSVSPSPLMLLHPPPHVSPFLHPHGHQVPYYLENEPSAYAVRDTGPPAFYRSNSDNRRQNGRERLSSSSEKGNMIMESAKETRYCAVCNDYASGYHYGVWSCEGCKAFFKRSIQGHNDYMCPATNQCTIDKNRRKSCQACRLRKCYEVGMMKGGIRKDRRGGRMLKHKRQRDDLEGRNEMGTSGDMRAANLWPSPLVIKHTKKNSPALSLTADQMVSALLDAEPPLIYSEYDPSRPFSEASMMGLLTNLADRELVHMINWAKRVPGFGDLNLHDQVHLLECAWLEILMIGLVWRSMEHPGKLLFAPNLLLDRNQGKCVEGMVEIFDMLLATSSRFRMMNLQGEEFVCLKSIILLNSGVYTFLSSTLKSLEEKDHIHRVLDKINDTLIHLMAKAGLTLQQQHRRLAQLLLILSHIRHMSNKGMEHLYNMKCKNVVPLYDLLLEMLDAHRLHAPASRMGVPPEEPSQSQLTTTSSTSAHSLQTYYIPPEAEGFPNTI
Source text: as §1

[5] = test system: tubulin; experiment: tubulin activities of 2-ME analogs (Table 3); format: biochemical
[6] = test system: CNS cell lines; experiment: Human Tumor Cell Panel Assay in vitro, CNS panel; format: cell-based; parameters: key: Most sensitive cell panes are marked with ✓
Source text: as §1

[7] = test system: MDA-MB-435 estrogen receptor-negative human breast carcinoma cells; experiment: In Vivo Tumor Growth Inhibition; parameters: species or system SCID mice
Method: To determine the antitumor activity of 2-ME and derivatives, SCID mice were s.c. inoculated with 10^6 MDA-MB-435 estrogen receptor-negative human breast carcinoma cells. Treatment was initiated on day 12 when tumor volumes reached 75-100 mm3 in volume. Drugs were suspended in 0.5 g/100 ml of carboxymethylcellulose with sterile glass beads, vortexed for 5 minutes, and administered p.o. in a volume of 0.1 ml. Control mice received 0.1 ml of carboxymethylcellulose p.o. Serial caliper measurements of perpendicular diameters were used to calculate tumor volume using the following: (shortest diameter)^2×(longest diameter)×0.52. T/C was calculated as the volume of treated tumors over the volume of control tumors. A smaller number indicates a greater inhibition of tumor growth.

[8] = test system: Renal cell lines; experiment: Human Tumor Cell Panel Assay in vitro, renal panel; format: cell-based; parameters: key: Most sensitive cell panes are marked with ✓
Source text: as §1

[9] = test system: Melanoma cell lines; experiment: Human Tumor Cell Panel Assay in vitro, melanoma panel; format: cell-based; parameters: key: Most sensitive cell panes are marked with ✓
Source text: as §1

[10] = test system: Ovarian cell lines (especially OVCAR-3); experiment: Human Tumor Cell Panel Assay in vitro, ovarian panel; format: cell-based; parameters: key: Most sensitive cell panes are marked with ✓
Source text: as §1

[11] = test system: corneal neovascularization; experiment: Mouse Corneal Micropocket Assay; format: in vivo, mice; conditions: 150 mg/kg, daily oral, 5 days
Method: Five- to 7-week-old SCID female mice were obtained from Massachusetts General Hospital (Boston, Mass.), Immunocompetent 7-9-week-old female C57BL/6 mice were obtained from ARCH Technical Services, Children's Hospital (Boston, Mass.). All animal studies were conducted according to protocols approved by the Animal Ethics Committee of Children's Hospital. Animals were anesthetized in a methoxyflurane (Pittman-Moore, Mundelein, Ill.) chamber prior to all procedures and were observed until fully recovered. Animals were sacrificed by a lethal dose of methoxyflurane.
Mouse Corneal Micropocket Assay To study the effect of microtubule inhibitors on angiogenesis in vivo, a model of angiogenesis in the mouse cornea was used in […] mice as described previously (Kenyon, B. B., Voest, E. E., Chen, C. C., Folkman, J., and D'Amato, R. J. A model of angiogenesis in the mouse cornea. Invest. Ophthalmol. & Visual Sci., 76: 1625-1632, 1996). In brief, after animals were anesthetized, corneal micropockets were created in both eyes with a modified von Graefe cataract knife. Into each pocket, a 0.4 mm ×0.4 mm×0.2 mm sucrose aluminum sulfate (Bukh Meditee, Copenhagen, Denmark) pellet coated with hydron polymer type NCC (IHN Sciences, New Brunswick, N.J.) containing 80 ng of bFGF or 160 ng of human recombinant […] (gift from Reprogenesis, Cambridge, Mass.) was implanted 1.0-1.2 mm from the limbal vessels (bFGF experiments) or 0.5-0.7 mm from the limbus (VEGF experiments). Erythromycin ointment (E. Fougera, Melville, N.Y.) was applied to each operated eye. The sucralfate acts to stabilize the growth factor and to slow its release from the hydron. Before testing each drug in this assay, we found the maximal dose that could be administered daily for 5 consecutive days without producing signs of toxicity (i.e., no hair loss, diarrhea, infection, lethargy, or weight loss). The treated groups received daily oral administration for 5 consecutive days of the stated dosage of 2-ME or a derivative thereof suspended in 0.5 g/100 ml of carboxymethylcellulose.
Treatment was started on the day of pellet implantation. […] For this purpose, the eyes of the mice were examined by slit-lamp biomicroscopy. Area of corneal neovascularization was calculated using a modified formula for a half-ellipse: Area (mm^2)=[π×clock hours×length (mm)×0.2 mm]. This formula provides the most accurate approximation of the area of neovascularization that grows toward the pellet. (Kenyon, B. B., Voest, E. E., Chen, C. C., Folkman, J., and D'Amato, R. J. A model of angiogenesis in the mouse cornea. Invest. Ophthalmol. & Visual Sci., 76: 1625-1632, 1996).

| Compound | Percentage Inhibition of colchicine binding to tubulin [1] [%] | IC50 [2] [µM] | RBA, Relative Binding Affinity to rat uterine cytosolic estrogen receptor [4] | IC50 [5] [µM] | Most Sensitive Cell Lines in Human Tumor Cell Panel Assay: CNS [6] | Most Sensitive Cell Lines in Human Tumor Cell Panel Assay: Renal [8] | Most Sensitive Cell Lines in Human Tumor Cell Panel Assay: Breast [3] | Most Sensitive Cell Lines in Human Tumor Cell Panel Assay: Melanoma [9] | Most Sensitive Cell Lines in Human Tumor Cell Panel Assay: Ovarian [10] | inhibition in corneal pocket assay [11] [%] | further results |
| --- | --- | --- | --- | --- | --- | --- | --- | --- | --- | --- | --- |
| COc1cc2c(cc1O)CCC1C2CCC2(C)C(=O)CCC12 (stereo not shown) [2-Methoxyestrone, reference compound] | 57 ± 6 | 8.8 ± 1 | – | – | – | – | – | – | – | – | – |
| C#CC1(O)CCC2C3CCc4cc(O)ccc4C3CCC21C (stereo not shown) [17-Ethynylestradiol, reference compound] | 50 ± 7 | 10 ± 2 | – | – | – | – | – | – | – | – | – |
| CCNc1cc2c(cc1O)CCC1C2CCC2(C)C(O)CCC12 (stereo not shown) [NSC 673652] | – | – | 0.35 | ~2 | – | – | – | – | – | – | IC50 ([3]; Homo sapiens, cell panel assay in vitro, two values per cell separated by /, read-out: Tumor Panel: Average log IC50(Molar) against 8 human breast cancer cell lines (converted)): 2 µM; Tumor Panel: Average log IC50(Molar) against 8 human breast cancer cell lines ([3]; cell panel assay in vitro, two values per cell separated by /): −5.7/−5.7 log Molar |
| CCOc1cc2c(cc1O)C(=NO)CC1C2CCC2(C)C(O)CCC12 (stereo not shown) [NSC 680185] | – | – | <0.001 | – | ✓ | ✓ | ✓ | ✓ | ✓ | – | T/C (volume of treated tumors over volume of control tumors) ([7]; 150 mg/kg p.o., duration not stated): 0.9 |
| C[C@]12CC[C@@H]3c4cc(OCC(F)(F)F)c(O)cc4/C(=N/O)C[C@H]3[C@@H]1CC[C@@H]2O [NSC 681683] | – | – | <0.0074 | 0.5 | ✓ | – | ✓ | ✓ | ✓ | 22 | tumor growth inhibition, comparison in words (FIG. 4) ([7]; FIG. 4): performed approximately as well as the derivative 681684 |
| CCOc1cc2c(cc1O)C(=NOC)CC1C2CCC2(C)C(O)CCC12 (stereo not shown) [NSC 683125] | – | – | <0.001 | – | – | ✓ | ✓ | ✓ | – | 23 | – |
